US7737155B2, “Nitrogen-containing heterocyclic compounds and methods of use thereof” (Schering Corporation, priority 2005, dated 2010)

These molecules were tested against recombinant human nicotinic acid receptor (NAR) (Homo sapiens, UniProt Q8TDS4) (assay: Nicotinic Acid Receptor Assay: inhibition of forskolin-stimulated cAMP accumulation in CHO cells (MesoScale Discovery cAMP kit)). Settings: CHO cells expressing recombinant human NAR; forskolin-stimulated cAMP; read-out: NA EC50 camp.
Sequence of recombinant human nicotinic acid receptor (NAR) (Q8TDS4 whole entry): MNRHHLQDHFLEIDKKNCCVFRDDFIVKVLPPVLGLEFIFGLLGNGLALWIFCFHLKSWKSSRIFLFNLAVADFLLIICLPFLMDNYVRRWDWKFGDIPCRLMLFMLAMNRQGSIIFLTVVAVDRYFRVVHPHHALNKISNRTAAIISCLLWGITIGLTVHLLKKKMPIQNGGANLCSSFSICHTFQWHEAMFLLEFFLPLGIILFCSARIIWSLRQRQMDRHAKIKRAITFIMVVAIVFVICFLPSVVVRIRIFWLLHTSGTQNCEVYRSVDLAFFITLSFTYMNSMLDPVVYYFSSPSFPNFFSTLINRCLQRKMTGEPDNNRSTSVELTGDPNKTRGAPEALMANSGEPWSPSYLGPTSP
Format: cell-based
Method: The nicotinic acid receptor agonist activity of the inventive compounds was determined by following the inhibition of forskolin-stimulated cAMP accumulation in cells using the MesoScale Discovery cAMP detection kit following the manufacture's protocol. Briefly, Chinese Hamster Ovary (CHO) cells expressing recombinant human nicotinic acid receptor (NAR) were harvested enzymatically, washed 1× in phosphate buffered saline (PBS) and resuspended in PBS containing 0.5 mM IBMX at 3×10^6 cells/mL. Ten μL of cell suspension was added to each well of a 384-well plate which contained 10 μL of test compounds. Test compounds were diluted with PBS containing 6 μM of forskolin. Plates were incubated for 30 minutes at room temperature after the addition of cells. Lysis buffer containing cAMP-Tag was added to each well (10 μL/well) as per the manufacturer's protocol. Plates were then incubated from 45 minutes to overnight. Prior to reading, 10 μL of read buffer was added to each well, and the plate was read in a Sector 6000 plate imager. The signal was converted to cAMP concentration using a standard curve run on each plate.
`CCc1cc(=O)oc2nc(OC[C@H]3CN([C@H](C)c4ccccc4)C(=O)O3)[nH]c(=O)c12` [Compound 613] gave an EC50 of 100 to 1000 nM.
Molecule `CCn1c(=O)[nH]c(=O)c2c(C)cc(=O)oc21` [Compound 291] has an EC50 of over 1000 nM.
`CC(C)(C)CCCc1cc(=O)oc2[nH]c(=O)[nH]c(=O)c12` [Compound 262] was tested, and the EC50 was 0.001 to 100 nM.
Molecule `CCCCc1cc(=O)oc2[nH]c(=O)n(CC3CC3)c(=O)c12` [Compound 258] has an EC50 of 100 to 1000 nM.
`CCCCc1cc(=O)oc2nc(OCc3cc[n+]([O-])cc3)[nH]c(=O)c12` [Compound 681] showed an EC50 of over 1000 nM.
`CCc1cc(=O)oc2nc(OCc3cc(C)cc(C)c3)[nH]c(=O)c12` [Compound 505] was tested, and the EC50 was 100 to 1000 nM.
`CC(C)(C)CCCc1cc(=O)oc2[nH]c(=O)n(C3CCC3)c(=O)c12` [Compound 284] gave an EC50 of 100 to 1000 nM.
In the case of `CCc1cc(=O)oc2nc(OCc3ccccc3-c3cccc(C(N)=O)c3)[nH]c(=O)c12` [Compound 585], the EC50 is reported as 100 to 1000 nM.
With `O=c1[nH]c(=O)c2c(CC3CCCC(C(F)(F)F)C3)cc(=O)oc2[nH]1` (stereo not shown) [Compound 213] the EC50 was 100 to 1000 nM.
`CCOC(=O)Cn1cc(CCCc2cc(=O)oc3[nH]c(=O)[nH]c(=O)c23)nn1` [Compound 250] gave an EC50 of over 1000 nM.
`CCc1cc(=O)oc2nc(OCc3cccc(-c4ccc(F)c(Cl)c4)c3)[nH]c(=O)c12` [Compound 558] was tested, and the EC50 was over 1000 nM.
In the case of `CC(=O)NCCCc1cc(=O)oc2[nH]c(=O)[nH]c(=O)c12` [Compound 237], the EC50 is reported as over 1000 nM.
`O=c1cc(CCCc2cccs2)c2c(=O)[nH]c(=O)n(CC3CC3)c2o1` [Compound 255] showed an EC50 of over 1000 nM.
Work on `C#CCCCCc1cc(=O)oc2[nH]c(=O)[nH]c(=O)c12` [Compound 226] yielded an EC50 of 0.001 to 100 nM.
Molecule `CCOC(=O)CCc1cc(=O)oc2[nH]c(=O)[nH]c(=O)c12` [Compound 222] has an EC50 of over 1000 nM.
`CCc1cc(=O)oc2nc(OCc3ccncc3Cl)[nH]c(=O)c12` [Compound 629] was tested, and the EC50 was 100 to 1000 nM.
In the case of `O=c1[nH]c(=O)c2c(CCCOCc3ccccc3)cc(=O)oc2[nH]1` [Compound 264], the EC50 is reported as over 1000 nM.
`CCc1cc(=O)oc2nc(OCCOc3cccc(C)c3)[nH]c(=O)c12` [Compound 598] was tested, and the EC50 was 100 to 1000 nM.
Work on `O=c1cc(CCc2cccs2)c2c(=O)n(C3CCC3)c(=O)[nH]c2o1` [Compound 282] yielded an EC50 of 100 to 1000 nM.
In the case of `CCc1cc(=O)oc2nc(OCc3cccc(OC)n3)[nH]c(=O)c12` [Compound 544], the EC50 is reported as 100 to 1000 nM.
Molecule `O=c1cc(CCCc2cccs2)c2c(=O)n(CC3CC3)c(=O)[nH]c2o1` [Compound 256] has an EC50 of over 1000 nM.
With `O=c1[nH]c(=O)c2c(CCCOC3CCCC3)cc(=O)oc2[nH]1` [Compound 271] the EC50 was 100 to 1000 nM.
For `CCCCc1c(-c2ccc(C#N)cc2)c(=O)oc2[nH]c(=O)[nH]c(=O)c12` [Compound 709], the EC50 was over 1000 nM.
In the case of `CCc1cc(=O)oc2nc(OCc3cc(Cl)ccc3OC)[nH]c(=O)c12` [Compound 507], the EC50 is reported as 0.001 to 100 nM.
With `O=c1[nH]c(=O)c2c(CC3CCC(F)(F)CC3)cc(=O)oc2[nH]1` [Compound 223] the EC50 was 0.001 to 100 nM.
With `CC1CC(c2cc(=O)oc3[nH]c(=O)[nH]c(=O)c23)C1` (stereo not shown) [Compound 296] the EC50 was 100 to 1000 nM.
Work on `CCc1cc(=O)oc2nc(OCc3ccc(Br)cn3)[nH]c(=O)c12` [Compound 536] yielded an EC50 of 100 to 1000 nM.
For `CCc1cc(=O)oc2nc(OCCCSC)[nH]c(=O)c12` [Compound 642], the EC50 was 100 to 1000 nM.
In the case of `CCn1c(=O)[nH]c2oc(=O)cc(C)c2c1=O` [Compound 289], the EC50 is reported as over 1000 nM.
`CCc1cc(=O)oc2nc(OCc3cc(C)n(C)n3)[nH]c(=O)c12` [Compound 530] showed an EC50 of 100 to 1000 nM.
`CCc1cc(=O)oc2nc(OCc3cccc(-n4cccc4)c3)[nH]c(=O)c12` [Compound 612] was tested, and the EC50 was over 1000 nM.
Molecule `CCc1c(C#Cc2ccccc2)c(=O)oc2[nH]c(=O)[nH]c(=O)c12` [Compound 219] has an EC50 of over 1000 nM.
Work on `CCCCc1cc(=O)oc2c1c(=O)[nH]c(=O)n2CC1CC1` [Compound 257] yielded an EC50 of over 1000 nM.
`CCc1noc(C)c1COc1nc2oc(=O)cc(CCC(C)C)c2c(=O)[nH]1` [Compound 688] gave an EC50 of 100 to 1000 nM.
`O=c1cc(CCCCC2CC2)c2c(=O)[nH]c(=O)n(C3CCC3)c2o1` [Compound 210] showed an EC50 of 100 to 1000 nM.
In the case of `CCc1cc(=O)oc2nc(OCc3ccccc3-c3cccc(C(=O)NC4CC4)c3)[nH]c(=O)c12` [Compound 553], the EC50 is reported as over 1000 nM.
With `CCCCc1c(-c2ccc(C(F)(F)F)cc2)c(=O)oc2[nH]c(=O)[nH]c(=O)c12` [Compound 708] the EC50 was 100 to 1000 nM.
`CCc1cc(=O)oc2nc(OCc3cccc(-c4ccc(OC)nc4)c3)[nH]c(=O)c12` [Compound 562] showed an EC50 of 100 to 1000 nM.
For `CCc1cc(=O)oc2nc(OCc3cccc(-c4cccc(OC)c4)c3)[nH]c(=O)c12` [Compound 561], the EC50 was 100 to 1000 nM.

Same assay, conditions: NA EC50 camp (nM), CHO cells expressing recombinant human NAR; forskolin-stimulated cAMP
For `CCc1cc(=O)oc2nc(OCc3cccc(-c4cccc(C#N)c4)c3)[nH]c(=O)c12` [Compound 567], the EC50 was 100 to 1000 nM.
`CCC#CCOc1nc2oc(=O)cc(Cc3ccccc3)c2c(=O)[nH]1` [Compound 615] showed an EC50 of 100 to 1000 nM.
In the case of `CCc1cc(=O)oc2nc(OCCOC)[nH]c(=O)c12` [Compound 524], the EC50 is reported as 100 to 1000 nM.
`CCc1cc(=O)oc2nc(OCC#CC3CC3)[nH]c(=O)c12` [Compound 589] gave an EC50 of 0.001 to 100 nM.
Molecule `CCc1cc(=O)oc2nc(OCc3ccccc3-c3cccc(C#N)c3)[nH]c(=O)c12` [Compound 509] has an EC50 of 100 to 1000 nM.

Same assay, conditions: NA EC50 camp, inhibition of forskolin-stimulated cAMP accumulation, CHO cells expressing recombinant human NAR
For `CCCCc1cc(=O)oc2nc(OCC#CC3CC3)[nH]c(=O)c12` [Compound 735], the EC50 was 94 nM.

Same assay, conditions: inhibition of forskolin-stimulated cAMP accumulation, CHO cells expressing recombinant human NAR; read-out: NA EC50 camp
`CC(C)(C)CCCc1cc(=O)oc2[nH]c(=O)[nH]c(=O)c12` [Compound 262] showed an EC50 of 49.9 nM.
For `CCCCc1cc(=O)oc2[nH]c(=O)n(OCC)c(=O)c12` [Compound 779], the EC50 was 2850 nM.
With `CCCCC#CCOc1nc2oc(=O)cc(CCCC3CC3)c2c(=O)[nH]1` [Compound 719] the EC50 was 152 nM.
Work on `CCc1cc(=O)oc2[nH]c(=O)n(CCF)c(=O)c12` [Compound 819] yielded an EC50 of 1540 nM.
With `COCCn1c(=O)[nH]c2oc(=O)cc(CCC3CC3)c2c1=O` [Compound 800] the EC50 was over 10000 nM.
`CCCCc1cc(=O)oc2[nH]c(=O)nc(OCC(F)(F)F)c12` [Compound 829] gave an EC50 of 882 nM.
Molecule `CCCc1cc(=O)oc2[nH]c(=O)nc(OCF)c12` [Compound 832] has an EC50 of 304 nM.
`CCOn1c(=O)[nH]c2oc(=O)cc(CCC3CCC3)c2c1=O` [Compound 777] gave an EC50 of 5600 nM.
Molecule `CCc1cc(=O)oc2[nH]c(=O)n(C3CCC3)c(=O)c12` [Compound 35] has an EC50 of 9 nM.
`CCCCc1cc(=O)oc2nc(CF)[nH]c(=O)c12` [Compound 809] showed an EC50 of 187 nM.
For `CCCCc1cc(=O)oc2[nH]c(=O)nc(OCCOC)c12` [Compound 787], the EC50 was 682 nM.
With `O=c1cc(CCC2CCCC2)c2c(=O)[nH]c(C(F)(F)F)nc2o1` [Compound 763] the EC50 was 7730 nM.
Work on `CCCCc1cc(=O)oc2[nH]c(=O)n(CCF)c(=O)c12` [Compound 818] yielded an EC50 of 308 nM.
With `CCCCc1cc(=O)oc2nc(OCC#CC(C)O)[nH]c(=O)c12` (stereo not shown) [Compound 737] the EC50 was 59.5 nM.
Work on `CCC(C)CCc1cc(=O)oc2nc(C(F)F)[nH]c(=O)c12` (stereo not shown) [Compound 812] yielded an EC50 of 40 nM.
In the case of `O=c1[nH]c(=O)c2c(CC3CCC(F)(F)CC3)cc(=O)oc2[nH]1` [Compound 223], the EC50 is reported as 26.5 nM.
`CCCCc1cc(=O)oc2[nH]c(=O)[nH]c(=O)c12` [Compound 102] showed an EC50 of 31 nM.
`CCC#CCOc1nc2oc(=O)cc(CCCC(C)C)c2c(=O)[nH]1` [Compound 715] was tested, and the EC50 was 671 nM.
`COn1c(=O)[nH]c2oc(=O)cc(CCCC3CC3)c2c1=O` [Compound 774] gave an EC50 of 28 nM.
With `CC1CCC(Cc2cc(=O)oc3[nH]c(=O)[nH]c(=O)c23)CC1` (stereo not shown) [Compound 127] the EC50 was 57.3 nM.
`COn1c(=O)[nH]c(=O)c2c(CCC3CCCC3)cc(=O)oc21` [Compound 773] showed an EC50 of 48.5 nM.
Molecule `CCCCc1cc(=O)oc2[nH]c(=O)n(N3CCOCC3)c(=O)c12` [Compound 797] has an EC50 of over 1000 nM.
